Values quoted from earlier work in patent publication US20120071554A1, “DEUTERATED 2-PROPYLPENTANOIC ACID COMPOUNDS” (priority 2008, published 2012).

Q: Which “administered dose excreted in the urine as the glucuronide conjugate” value (adult patients on monotherapy) does the source give for `CCCC(CCC)C(=O)O` [Valproate, sodium hydrogen bis(2-propylpentanoate)] here?
A: Its value is 30-50%.

Q: What about the “dose excreted as products of other oxidative mechanisms” value (adult patients on monotherapy) of the same compound?
A: Its value is 15-20%.

Q: What about the “dose excreted as the products of mitochondrial beta-oxidation” value (adult patients on monotherapy) of the same compound?
A: Its value is “over 40%”.

Q: What about the “dose excreted unchanged in the urine” value (in vivo) of the same compound?
A: The value was “Less than 3%”.

Q: And the “increase of the valproate free-fraction” value (pediatric patients co-dosed with valproate and aspirin, inhibition of beta-oxidation pathway)?
A: The value was 4 fold.
